≈ marks a conversion by molar mass, not a printed value.
Assay: physchem
Method: An additional 2 mL of water was added to give a clear solution. […] This was allowed to stir for two days at ambient temperature. The solids were filtered and washed with 15 mL of (2:1 v:v) 1-propanol:water, 15 mL of 1-propanol, then 2×15 mL of methyl tert-butyl ether.

SMILES: O=C([O-])c1ccc[n+]([C@@H]2O[C@H](COP(=O)(O)O)[C@@H](O)[C@H]2O)c1 [Compound 2, Nicotinic acid mononucleotide]
- water solubility as ratio water:Compound 2: 50:1 w:w
- solubility (water): ~20 mg/mL (≈ 59.7 mM)

Reference: patent US11787830B2, “Crystalline solids of nicotinic acid mononucleotide and esters thereof and methods of making and use” (Metro International Biotech, LLC, priority 2021, dated 2023)
